In PubChem BioAssay AID434987 (Southern Research Specialized Biocontainment Screening …, 2010):
Activity calls are given as the source filed them. The rule behind the calls is not given here.

Tested on: M. tuberculosis H37Rv growth inhibition with meropenem
Test: dose response, H37Rv, with and without meropenem (AID 434987);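 note: growth over 7 days at 37 °C before Alamar Blue read on day 9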
[1] = M. tuberculosis H37Rv growth inhibition, measured here: IC50 without meropenem
[2] = M. tuberculosis H37Rv growth inhibition, measured here: IC90 without meropenem
[3] = measured here: IC90 with meropenem

Row | Structure (SMILES) | IC50 | IC50 [1] [µM] | IC90 [2] [µM] | IC90 [3] [µM]
1 | COc1ccc(/C=C/C(=O)NCC(=O)N/N=C/c2cc(Br)ccc2OCc2ccccc2)cc1 | > 100 µM (inactive) | > 100 | > 100 | > 100
2 | CC(=O)Nc1cccc(-n2nnc(SCC(=O)Nc3ccc(F)c(Cl)c3)n2)c1 | > 100 µM (inactive) | > 100 | > 100 | > 100
3 | O=C(Nc1nnc(-c2ccco2)o1)c1ccc(S(=O)(=O)N2CCOCC2)cc1 | 24.5 µM | 63.5 | > 100 | > 100
4 | CC1=NN(c2ccccc2)C(=O)/C1=C/c1c(O)[nH]c(=S)[nH]c1=O | > 100 µM (inactive) | > 100 | > 100 | > 100
5 | COc1ccc(NC(C)C(=O)N/N=C/c2ccc([N+](=O)[O-])s2)cc1 (stereo unspecified) | 2.17 µM (inactive) | 3.12 | 4.8 | 4.79
6 | O=c1c2c(nc3n1CCCCC3)sc1c(O)c(Br)ccc12 | 48 µM (inactive) | > 100 | > 100 | > 50
7 | COC(=O)CN1C(CN2CCOCC2)=Nc2ccc(Br)cc2C1c1ccccc1 (stereo unspecified) | > 100 µM (inactive) | > 100 | > 100 | > 100
8 | CNC(=O)Nc1cccc(-c2cc(-c3c(Cl)cccc3Cl)no2)c1 | > 100 µM (inactive) | > 100 | > 100 | > 100
9 | CCCCCNCc1cccc(Br)c1 | 48.5 µM (inactive) | > 100 | > 100 | > 100
10 | O=C(Oc1oc(-c2ccco2)nc1C=Nc1ccc(Cl)cc1)c1ccco1 | 15 µM | > 100 | > 100 | > 100
11 | CC/C(=N\NC(=O)c1ccc(-c2ccccc2)cc1)C12CC3CC(CC(C3)C1)C2 | 40.7 µM (inactive) | 41.1 | 47.9 | 43.7
12 | O=C(CCS(=O)(=O)c1ccc(F)cc1)Nc1nnc(-c2cccs2)o1 | 2.94 µM | 47.2 | > 100 | > 100
13 | O=C(CN1CCN(c2ccccn2)CC1)Nc1ccc(Cl)c(C(F)(F)F)c1 | 58.5 µM (inactive) | 90.1 | > 100 | > 100
14 | Cc1cc(C)cc(NC(=S)NN)c1 | 55.5 µM (inactive) | 78.3 | > 100 | > 100
15 | N#CCOC(=O)/C=C/c1ccc2c(c1)OCO2 | 29.7 µM | > 100 | > 100 | > 50
16 | Cc1cc(C)cc(SCc2noc(C(=O)NC(C)C)c2C(=O)O)c1 | 25.1 µM (inactive) | 45.2 | 50.7 | 27.3
17 | CCCOc1ccc(C2Nc3cccc4cccc(c34)N2)cc1 | > 100 µM (inactive) | > 100 | > 100 | > 100
18 | CCOC(OCC)c1cn(Cc2ccc3c(c2)C(=O)c2ccccc2C3=O)nn1 | > 100 µM (inactive) | > 100 | > 100 | > 100
19 | COC(=O)c1c(C)n(-c2ccccc2)c2ccc(O)cc12 | 1.53 µM | > 100 | > 100 | > 100
20 | CNC(=O)COC(=O)c1ccccc1NC(=O)c1ccco1 | 35.1 µM (inactive) | 47.1 | > 100 | > 100

Row | Structure (SMILES) | IC50 | IC50 [1] [µM] | IC90 [2] [µM] | IC90 [3] [µM]
21 | COc1ccc(Br)cc1/C=N/NC(=O)CNC(=O)/C=C/c1ccccc1 | > 100 µM (inactive) | > 100 | > 100 | > 100
22 | OCCCn1c(C2CCCN2c2nc(-c3ccc(Cl)cc3)cs2)nc2cc(Cl)c(Cl)cc21 (stereo unspecified) | > 100 µM (inactive) | > 100 | > 100 | > 100
23 | CC(C(=O)Nc1nc2ccccc2[nH]1)N1C(=O)C2CC=CCC2C1=O (stereo unspecified) | > 100 µM (inactive) | > 100 | > 100 | > 100
24 | O=C(N/N=C\c1cn[nH]c1-c1ccc(Cl)cc1)c1cccs1 | > 100 µM (inactive) | > 100 | > 100 | > 100
25 | C/C(=N\NC(=O)c1cc(Br)ccc1O)c1ccccn1 | 3.88 µM | 94.9 | > 100 | > 100
26 | COC(=O)c1cccc(NC(=S)NCCC2=CCCCC2)c1 | > 100 µM (inactive) | > 100 | > 100 | > 100
27 | Cc1ccc(C(=O)c2oc3ccccc3c2NC(=O)c2cc(-c3cc(C)ccc3O)n[nH]2)cc1 | > 100 µM (inactive) | > 100 | > 100 | > 100
28 | Cc1ccc(S(=O)(=O)Nc2cccc3cccnc23)c([N+](=O)[O-])c1 | 1.1 µM | 9.07 | 12.4 | 4.7
29 | O=C(CCN1C(=O)/C(=C/c2ccccc2F)SC1=S)Nc1ccccn1 | > 100 µM (inactive) | > 100 | > 100 | > 100
30 | CCOc1ccc(S(=O)(=O)N(C(=O)c2ccco2)c2cc3sc(=O)oc3c3ccccc23)cc1 | 44.7 µM (inactive) | 41.8 | 45.1 | 46.9
31 | CC1CC1C(=O)Nc1nc(-c2cccs2)c(-c2cccs2)s1 (stereo unspecified) | 94.3 µM (inactive) | > 100 | > 100 | > 100
32 | COc1cc2c(C(=O)N3CCN(c4ccccc4C)CC3)c(C)oc2cc1Br | > 100 µM (inactive) | > 100 | > 100 | > 100
33 | Cc1cc(C(=O)Nc2ccc(Br)cc2F)n(-c2ccccc2)n1 | > 100 µM (inactive) | > 100 | > 100 | > 100
34 | Cc1ccc(N=Cc2c(O)ccc3ccccc23)cc1F | > 100 µM (inactive) | > 100 | > 100 | > 100
35 | Cc1ccc2occ(/C=C/C(=O)c3ccccc3O)c(=O)c2c1 | 50.2 µM (inactive) | > 100 | > 100 | > 100
36 | Cc1c(C(=O)Nc2cccnc2)oc2ccc(Br)cc12 | > 100 µM (inactive) | > 100 | > 100 | > 100
37 | COC(=O)c1cc(OC)c(OC)cc1NC(=O)c1ccc(OC)c(OC)c1 | 31.8 µM | > 100 | > 100 | > 100
38 | CC1CC2(CCCCC2)Nc2ccc3ccccc3c21 (stereo unspecified) | 49.1 µM (inactive) | 86.1 | 96 | > 100
39 | O=C(Cc1cccc2ccccc12)N/N=C/c1ccc(O)c([N+](=O)[O-])c1 | 17.3 µM (inactive) | 27.2 | 47.2 | 31.6
40 | CCCC(C(=O)N1CCOCC1)N1C(=O)C2C3C=CC(C3)C2C1=O (stereo unspecified) | > 100 µM (inactive) | > 100 | > 100 | > 100

Row | Structure (SMILES) | IC50 | IC50 [1] [µM] | IC90 [2] [µM] | IC90 [3] [µM]
41 | COc1ccc(CCNCc2csc3nc4ccccc4n23)cc1OC | 50 µM (inactive) | 93.7 | > 100 | > 100
42 | NC(=S)N/N=C/c1ccc2ccccc2c1 | 2.02 µM | > 100 | > 100 | > 100
43 | CCN(CCNC(=O)Nc1ccc(Cl)cc1)c1ccccc1 | > 100 µM (inactive) | > 100 | > 100 | > 100
44 | COCCNC(=S)N/N=C1\CC(C)CC(C)(C)C1 (stereo unspecified) | 24.5 µM (inactive) | 32.4 | 41.1 | 27.5
45 | O=C(CCNc1ccccc1)c1cccc([N+](=O)[O-])c1 | 11.7 µM | > 100 | > 100 | 45.8
46 | COc1ccc([N+](=O)[O-])cc1NC(=O)c1ccc(Br)s1 | > 100 µM (inactive) | > 100 | > 100 | > 100
47 | CC(=O)c1ccc(N2CCN(c3ncc(C(F)(F)F)cc3Cl)CC2)cc1 | > 100 µM (inactive) | > 100 | > 100 | > 100
48 | CCNc1nc(CN2CCCCC2)nc2scc(-c3ccccc3)c12 | 8.75 µM | 47.2 | > 100 | 57.3
49 | CN(c1ccc(OCC(=O)Nc2ccc3[nH]c(=O)[nH]c3c2)cc1)S(=O)(=O)c1ccc(Cl)cc1 | > 100 µM (inactive) | > 100 | > 100 | > 100
50 | CCOC(=O)C(=CNc1ccc2c(c1)c1ccccc1n2CC)C(=O)OCC | 15.2 µM | > 100 | > 100 | > 25
51 | CSc1nnc(-c2ccc(NC(N)=S)cc2)o1 | 12.2 µM | > 100 | > 100 | > 100
52 | Cn1c(/C=N/c2nc3ccccc3[nH]2)nc2ccccc21 | < 0.2 µM | 3.82 | > 100 | 4.17
53 | CCC1(c2ccc(Cl)cc2)NC(=S)N(c2ccc(C)cc2)N1 (stereo unspecified) | > 100 µM (inactive) | > 100 | > 100 | > 100
54 | CC(=O)C1=C(C)NC(SCC(=O)c2ccccc2)=C(C#N)C1CC(C)C (stereo unspecified) | 51.8 µM (inactive) | 88.5 | > 100 | > 100
55 | CCOC(=O)CNC(=O)CSc1ncnc2c1cnn2Cc1ccccc1 | > 100 µM (inactive) | > 100 | > 100 | > 100
56 | COc1ccc(CNC(=O)c2sc3nc4c(c(C(F)(F)F)c3c2N)CCC4)cc1 | 7.76 µM (inactive) | 10.5 | > 25 | > 100
57 | C/C(=N\NC(=O)c1cc2c(s1)CCC(C)C2)c1ccc[nH]1 (stereo unspecified) | 6.51 µM | > 100 | > 100 | > 100
58 | O=C(Nc1nc(-c2ccc(F)c(F)c2)cs1)c1cnccn1 | 14.6 µM | > 100 | > 100 | > 100
59 | Cc1cc2ccccc2n1CCNC(=O)COc1ccccc1 | 30.1 µM (inactive) | 44.7 | 60.3 | 42.8
